Assay results taken from US8946478B2, “Benzamide derivative with anticancer activity and preparation method and use thereof” (Zhejiang Hisun Pharmaceutical Co., Ltd., priority 2010, dated 2015).

Tests used:
[1] = test system: 18 tumor cell strains; assay: In vitro efficacy screening, summary over the tumor cell strains; assay type: cell-based, human; details: in vitro screening; for inhibitory effects on tumor cell proliferation (in words): BSI-201 as positive drug
Procedure: (§1) Human colon cancer cell strains (Colo205 and HCT-116), human breast cancer cell strains (MCF-7 and MDA-MB435), human lung cancer cell strains (A549, 95D and NCI460), human ovarian cancer cell strains (OVCAR-5, OVCAR-8, HO8910 and SKOV-3), human leukemia (HL-60 and K562), human prostate cancer (DU145 and BXPC-3), human uterine cancer (Hela), human pancreatic cancer (PANC-1), human hepatoma (HepG 2) were all obtained from ATCC. Colo205, HL-60, K562 cells were cultured in RPMI 1640 containing 2 mM/L glutamine, 10% FBS, 1.0 mM sodium pyruvate. HCT-116, MCF-7, A549, 95D, HO8910, NCI460, OVCAR-5, OVCAR-8, DU145, BXPC-3, Hela, PANC-1, HepG2 cells were cultured in DMEM containing 2 mM/L glutamine, 10% FBS. MDA-MB435 cells were cultured in L-15 containing 2 mM/L glutamine, 10% FBS. SKOV-3 cells were cultured in McCoy's containing 2 mM/L glutamine, 10% FBS. Colo205, HL-60 and K562 cells were seeded in 96-well plates, 150 μL/well and 8000 cells/well, and the 96-well plates were pre-incubated in an incubator at 37° C. with 5% CO2, 100% relative humidity for 24 hours. HCT-116, MCF-7, NCI460, OVCAR-5, OVCAR-8, Hela, HepG 2 and MDA-MB435 cells were seeded in 96-well plates, 5000 cells/well; A549, 95D, HO8910, DU145, BXPC-3, PANC-1 and SKOV-3 cells were seeded in 96-well plates, 10000 cells/well, and the 96-well plates were pre-incubated in an incubator at 37° C. with 5% CO2, 100% relative humidity for 24 hours, to allow the cells to adhere.
(§2) 50 μL of pre-cooled 50% (mass/volume) TCA was added into the time zero control wells for each cell strain to fix the cells. To other wells, 50 μL of various concentrations of compounds were added, and maintained for 48 h, wherein each drug concentration was in triplicate, and there were blank control wells (cell culture medium without cells), drug-free control wells (with no drugs but the same volume of complete medium) and positive drug BSI-201 control wells, and the plates were incubated in an incubator at 37° C. with 5% CO2, full humidity (100% relative humidity) for 48 hours
(§3) 50 μL pre-cooled 50% (mass/volume) TCA was added onto the surface of the culture medium to fix the cells, which was then placed at 4° C. for 1 h. The supernatant was removed and each well was washed with deionized water for 5 times to remove TCA, serum proteins, etc. After dried in the air, about 100 μL enough amount of 0.4% SRB (formulated with 1% acetic acid) was added into each well, and was placed at room temperature for 20 to 30 min. Liquid in each well was discarded and each well was rapidly washed with 1% acetic acid for five times, to remove unbound dye until the unbound dye was completely rinsed clean. After dried in the air until the moisture was invisible, each well was added 200 μL Tris base to dissolve, shaken on a plate oscillator for 5 min or mixed by beating up and down with a pipette tip, and then measured on the multi-function instruction (M5 Detection System, MD Group Ltd.) with a detection wavelength of 515 nm, zero adjusted with 690 nm blank control.
(§4) The dose-response curve was plotted by XL-fit to determine the GI50 value.

[2] = test system: human breast cancer cell strain MCF-7; assay: In vitro SRB tumor cell growth inhibition (GI50); assay type: cell-based; details: MCF-7 cells
Procedure: as §1, §2, §3, §4

[3] = test system: human leukemia HL-60; assay: In vitro SRB tumor cell growth inhibition (GI50); assay type: cell-based; details: Homo sapiens, HL-60, 48 h, HL-60 cells
Procedure: as §1, §2, §3, §4

[4] = test system: human lung cancer cell strain NCI-460; assay: In vitro SRB tumor cell growth inhibition (GI50); assay type: cell-based; details: NCI-460 cells
Procedure: as §1, §2, §3, §4

[5] = test system: human colon cancer cell strain HCT-116; assay: In vitro SRB tumor cell growth inhibition (GI50); assay type: cell-based; details: HCT-116 cells
Procedure: as §1, §2, §3, §4

[6] = test system: human breast cancer cell strain MDA-MB435; assay: In vitro SRB tumor cell growth inhibition (GI50); assay type: cell-based; details: MDA-MB435 cells
Procedure: as §1, §2, §3, §4

[7] = test system: human lung cancer cell strain 95D; assay: In vitro SRB tumor cell growth inhibition (GI50); assay type: cell-based; details: 95D cells, 48 h
Procedure: as §1, §2, §3, §4

[8] = test system: human ovarian cancer cell strain OVCAR-8; assay: In vitro SRB tumor cell growth inhibition (GI50); assay type: cell-based; details: OVCAR-8 cells
Procedure: as §1, §2, §3, §4

[9] = test system: human prostate cancer DU145; assay: In vitro SRB tumor cell growth inhibition (GI50); assay type: cell-based; details: Homo sapiens, DU-145, 48 h, DU145 cells
Procedure: as §1, §2, §3, §4

Structure (SMILES) | efficacy in inhibition of tumor cell proliferation, graded in words against I-1 [1] | inhibitory effects on tumor cell proliferation (in words) [1] | GI50 ([2]; Homo sapiens, MCF7, 48 h) [µM] | GI50 [3] [µM] | GI50 ([4]; Homo sapiens, NCI-460, 48 h) [µM] | GI50 ([5]; Homo sapiens, HCT-116, 48 h) [µM] | further results
C#Cc1ccc(C(=O)NC)cc1[N+](=O)[O-] [Compound I-9, N-methyl-4-ethynyl-3-nitrobenzamide] | good effects on inhibition of tumor cell proliferation | have inhibitory effects on tumor cell proliferation | 6.7 | 9.71 | 11.5 | 22.5 | –
C#Cc1ccc(C(=O)N2CCOCC2)cc1[N+](=O)[O-] [Compound I-22, (4-ethynyl-3-nitrophenyl)(morpholin-4-yl)ketone] | – | have inhibitory effects on tumor cell proliferation | 13.4 | – | – | – | GI50 ([6]; Homo sapiens, MDA-MB-435, 48 h): 6.53 µM
CC#Cc1ccc(C(N)=O)cc1[N+](=O)[O-] [Compound I-12, 4-(1-propynyl)-3-nitrobenzamide] | good effects on inhibition of tumor cell proliferation | have inhibitory effects on tumor cell proliferation | – | 34.6 | – | – | –
CNC(=O)c1ccc(C#N)c([N+](=O)[O-])c1 [Compound I-27, N-methyl-4-cyano-3-nitrobenzamide] | good effects on inhibition of tumor cell proliferation | have inhibitory effects on tumor cell proliferation | 31.6 | – | – | – | GI50 ([6]; Homo sapiens, MDA-MB-435, 48 h): 29.3 µM
C#Cc1ccc(C(=O)N2CCN(C)CC2)cc1[N+](=O)[O-].Cl [Compound I-29, (4-ethynyl-3-nitrophenyl)(4-methylpiperazin-1-yl)ketone hydrochloride] | slightly lower than that of I-1 | have inhibitory effects on tumor cell proliferation | – | – | – | – | GI50 ([7]; hydrochloride): 15.8 µM; GI50 ([2]; 48 h, hydrochloride): 11.8 µM; GI50 ([6]; 48 h, hydrochloride): 8.44 µM; GI50 ([8]; 48 h, hydrochloride): 29.3 µM; GI50 ([4]; 48 h, hydrochloride): 28.2 µM; GI50 ([5]; 48 h, hydrochloride): 14.3 µM
C#Cc1ccc(C(=O)N(CCCC)CCCC)cc1[N+](=O)[O-] [Compound I-16, N,N-dibutyl-4-ethynyl-3-nitrobenzamide] | good effects on inhibition of tumor cell proliferation | have inhibitory effects on tumor cell proliferation | 8.21 | 1.27 | 15.5 | 12.9 | –
C#Cc1ccc(C(=O)N2CCC2)cc1[N+](=O)[O-] [Compound I-25] | – | – | 9.5 | – | 27.7 | 10.9 | GI50 ([8]; Homo sapiens, OVCAR-8, 48 h): 14.4 µM
C#Cc1ccc(C(=O)NC(=O)c2ccccc2)cc1[N+](=O)[O-] [Compound I-13, N-benzoyl-4-ethynyl-3-nitrobenzamide] | good effects on inhibition of tumor cell proliferation | have inhibitory effects on tumor cell proliferation | 25.3 | – | – | – | GI50 ([6]; Homo sapiens, MDA-MB-435, 48 h): 6.24 µM
N#Cc1ccc(C(N)=O)cc1[N+](=O)[O-] [Compound I-8, 4-cyano-3-nitrobenzamide] | good effects on inhibition of tumor cell proliferation | have inhibitory effects on tumor cell proliferation | – | – | – | 13 | GI50 ([6]; Homo sapiens, MDA-MB-435, 48 h): 32.2 µM
C#Cc1ccc(C(=O)NC(=O)OCCCC)cc1[N+](=O)[O-] [Compound I-5, N-butoxycarbonyl-4-ethynyl-3-nitrobenzamide] | good effects on inhibition of tumor cell proliferation | have inhibitory effects on tumor cell proliferation | 10.1 | – | 20.1 | 17.9 | –
C#Cc1ccc(C(=O)N(C)C)cc1[N+](=O)[O-] [Compound I-10, N,N-dimethyl-4-ethynyl-3-nitrobenzamide] | good effects on inhibition of tumor cell proliferation | have inhibitory effects on tumor cell proliferation | 12.3 | 3.78 | 24.1 | 18.3 | –
C#Cc1ccc(C(=O)NC(C)=O)cc1[N+](=O)[O-] [Compound I-11, N-acetyl-4-ethynyl-3-nitrobenzamide] | good effects on inhibition of tumor cell proliferation | have inhibitory effects on tumor cell proliferation | 10.7 | 2.35 | 13.4 | 12.1 | –
C#Cc1ccc(C(=O)NCCC)cc1[N+](=O)[O-] [Compound I-18, N-propyl-4-ethynyl-3-nitrobenzamide] | good effects on inhibition of tumor cell proliferation | have inhibitory effects on tumor cell proliferation | 6.29 | 4.86 | 7.09 | 9.45 | –
C#Cc1ccc(C(=O)NCCCC)cc1[N+](=O)[O-] [Compound I-19, N-butyl-4-ethynyl-3-nitrobenzamide] | good effects on inhibition of tumor cell proliferation | have inhibitory effects on tumor cell proliferation | 9.59 | 5.15 | 10.1 | 9.01 | –
C#Cc1ccc(C(=O)NC(=O)OCCC)cc1[N+](=O)[O-] [Compound I-4, N-propoxycarbonyl-4-ethynyl-3-nitrobenzamide] | good effects on inhibition of tumor cell proliferation | have inhibitory effects on tumor cell proliferation | – | – | – | – | GI50 ([6]; Homo sapiens, MDA-MB-435, 48 h): 12.6 µM
C#Cc1ccc(C(=O)N(CCC)CCC)cc1[N+](=O)[O-] [Compound I-15, N,N-dipropyl-4-ethynyl-3-nitrobenzamide] | slightly lower than that of I-1 | have inhibitory effects on tumor cell proliferation | 9.92 | – | 17 | 12 | GI50 [9]: 2.37 µM
C#Cc1ccc(C(N)=O)cc1N=O [Compound I-28, 4-ethynyl-3-nitrosobenzamide] | good effects on inhibition of tumor cell proliferation | have inhibitory effects on tumor cell proliferation | 9.78 | – | – | – | GI50 ([7]; Homo sapiens, 95-D): 18.1 µM; GI50 ([8]; Homo sapiens, OVCAR-8, 48 h): 17.2 µM
